Source: the supplement of paper PMC11061612

Experiments:
[1] = compound: C1CC(C1)(C(=O)[O-])C(=O)[O-].N.N.[Pt+2] [Carboplatin]; details: max 10 µM
How it was run: (§1)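 Plates with 1536 wells received cancer cell lines in 7.5 μl of DMEM/F12 or RPMI containing 10% FBS. After 24 hours at 37°C and 5% CO2, cells were dosed for 72 hours with final DMSO typically 0.2%, and viability was read by CellTiter-Glo 2.0 luminescence scaled between blank-well and DMSO-well means. The single-agent IC50 was taken from a logistic fit of the dose responses made with a non-linear mixed effects model, that logistic curve having two parameters.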

[2] = compound: C1CN(CCC1(C(=O)N[C@@H](CCO)C2=CC=C(C=C2)Cl)N)C3=NC=NC4=C3C=CN4 [AZD5363]; details: max 10 µM
How it was run: as §1

[3] = compound: C=CCn1c(=O)c2cnc(Nc3ccc(N4CCN(C)CC4)cc3)nc2n1-c1cccc(C(C)(C)O)n1 [AZD1775]; details: max 3 µM
How it was run: as §1

[4] = compound: CC(=O)Nc1cccc(-n2c(=O)n(C3CC3)c(=O)c3c(Nc4ccc(I)cc4F)n(C)c(=O)c(C)c32)c1 [Trametinib]; details: max 1 µM
How it was run: as §1

[5] = compound: CC(=O)O[C@H]1C(=O)[C@@]2(C)[C@H]([C@H](OC(=O)c3ccccc3)[C@]3(O)C[C@H](OC(=O)[C@H](O)[C@@H](NC(=O)c4ccccc4)c4ccccc4)C(C)=C1C3(C)C)[C@]1(OC(C)=O)CO[C@@H]1C[C@@H]2O [Paclitaxel]; details: max 3 µM
How it was run: as §1

[6] = compound: CC(=O)c1c(C)c2cnc(Nc3ccc(N4CCNCC4)cn3)nc2n(C2CCCC2)c1=O [Palbociclib]; details: max 10 µM
How it was run: as §1

[7] = compound: CC(C)n1c(=O)n(C)c2cnc3cc(F)c(-c4ccc(OCCCN5CCCCC5)nc4)cc3c21 [AZD1390]; details: max 0.3 µM
How it was run: as §1

[8] = compound: CC1(C)CCC(CN2CCN(c3ccc(C(=O)NS(=O)(=O)c4ccc(NCC5CCOCC5)c([N+](=O)[O-])c4)c(Oc4cnc5[nH]ccc5c4)c3)CC2)=C(c2ccc(Cl)cc2)C1 [Venetoclax]; details: max 1 µM
How it was run: as §1

[9] = compound: CC1=C(C(=CC=C1)Cl)NC(=O)C2=CN=C(S2)NC3=CC(=NC(=N3)C)N4CCN(CC4)CCO [Dasatinib]; details: max 2 µM
How it was run: as §1

[10] = compound: CC1=CN2[C@@H](C1)C=NC3=CC(=C(C=C3C2=O)OC)OCCCCCOC4=C(C=C5C(=C4)N=C[C@@H]6CC(=CN6C5=O)C)OC [SG3199]; details: max 0.001 µM
How it was run: as §1

[11] = compound: CCN(CCO)CCCOc1ccc2c(Nc3cc(CC(=O)Nc4cccc(F)c4)[nH]n3)ncnc2c1 [AZD2811]; details: max 1 µM
How it was run: as §1

[12] = compound: CCc1c2c(nc3ccc(O)cc13)-c1cc3c(c(=O)n1C2)COC(=O)[C@]3(O)CC [SN-38]; details: max 0.3 µM
How it was run: as §1

[13] = compound: CN(C)CCCOc1ccc(-c2ccc3ncc4c(c3c2)n(C2CCOCC2)c(=O)n4C)cn1 [AZD0156]; details: max 3 µM
How it was run: as §1

[14] = compound: CN(CC[C@H](CSC1=CC=CC=C1)NC2=C(C=C(C=C2)S(=O)(=O)NC(=O)C3=CC=C(C=C3)N4CCC(CC4)[C@H](C5=CC=CC=C5C6=CC=C(C=C6)Cl)O)S(=O)(=O)C(F)(F)F)CCO [AZD4320]; details: max 1 µM
How it was run: as §1

[15] = compound: COc1cc(Nc2ncc3c(n2)-c2ccc(Cl)cc2C(c2c(F)cccc2OC)=NC3)ccc1C(=O)O [Alisertib]; details: max 10 µM
How it was run: as §1

[16] = compound: COc1cc([C@@H]2c3cc4c(cc3[C@@H](O[C@@H]3O[C@@H]5CO[C@@H](C)O[C@H]5[C@H](O)[C@H]3O)[C@H]3COC(=O)[C@H]23)OCO4)cc(OC)c1O [Etoposide]; details: max 10 µM
How it was run: as §1

[17] = compound: COc1cc2ncnc(Nc3ccc(F)c(Cl)c3)c2cc1OCCCN1CCOCC1 [Gefitinib]; details: max 10 µM
How it was run: as §1

[18] = compound: COc1cccc(OCCCN)c1-c1cc(Nc2cnc(C#N)cn2)n[nH]1 [Prexasertib]; details: max 1 µM
How it was run: as §1

[19] = compound: COc1cccc2c1C(=O)c1c(O)c3c(c(O)c1C2=O)C[C@@](O)(C(=O)CO)C[C@@H]3O[C@H]1C[C@H](N)[C@H](O)[C@H](C)O1 [Doxorubicin]; details: max 1 µM
How it was run: as §1

[20] = compound: COc1nnc2ccc(N3CCC(c4ccc(OCCN5CCN(C)C(=O)[C@H]5C)cc4)CC3)nn12 [AZD5153]; details: max 1 µM
How it was run: as §1

[21] = compound: CS(=O)(=O)CCNCc1ccc(-c2ccc3ncnc(Nc4ccc(OCc5cccc(F)c5)c(Cl)c4)c3c2)o1 [Lapatinib]; details: max 10 µM
How it was run: as §1

[22] = compound: C[C@@H](Nc1cc(F)cc(F)c1)c1cc(C(=O)N(C)C)cc2c(=O)cc(N3CCOCC3)oc12 [AZD8186]; details: max 10 µM
How it was run: as §1

[23] = compound: C[C@@H](Oc1cc(-c2cnn(C3CCNCC3)c2)cnc1N)c1c(Cl)ccc(F)c1Cl [Crizotinib]; details: max 10 µM
How it was run: as §1

[24] = compound: C[C@@H](c1ccc2nccn2c1)n1nnc2ncc(-c3cnn(C)c3)nc21 [Savolitinib]; details: max 1 µM
How it was run: as §1

[25] = compound: C[C@@H]1COCCN1C2=NC(=NC(=C2)C3(CC3)[S@](=N)(=O)C)C4=C5C=CNC5=NC=C4 [AZD6738]; details: max 10 µM
How it was run: as §1

[26] = compound: Cc1c2c(nn1C)CSCc1cc(n(C)n1)CSc1cc(c3ccccc3c1)OCCCc1c(C(=O)O)n(C)c3c-2c(Cl)ccc13 [AZD5991]; details: max 1 µM
How it was run: as §1

[27] = compound: Cc1cc2ncnn2cc1Nc1ncc2c(n1)n(C1CCOCC1)c(=O)n2C [AZD7648]; details: max 10 µM
How it was run: as §1

[28] = compound: Cc1nc(-c2cn3c(n2)-c2ccc(-c4cnn(C(C)(C)C(N)=O)c4)cc2OCC3)n(C(C)C)n1 [Taselisib]; details: max 10 µM
How it was run: as §1

[29] = compound: Cn1cnc2c(F)c(Nc3ccc(Br)cc3Cl)c(C(=O)NOCCO)cc21 [Selumetinib]; details: max 10 µM
How it was run: as §1

[30] = compound: N#Cc1cnc(Nc2cc(NC[C@H]3CNCCO3)c(C(F)(F)F)cn2)cn1 [SRA737]; details: max 10 µM
How it was run: as §1

[31] = compound: NC1(c2ccc(-c3nc4ccn5c(=O)[nH]nc5c4cc3-c3ccccc3)cc2)CCC1 [MK-2206]; details: max 10 µM
How it was run: as §1

[32] = compound: Nc1ccn([C@@H]2O[C@H](CO)[C@@H](O)C2(F)F)c(=O)n1 [Gemcitabine]; details: max 0.3 µM
How it was run: as §1

[33] = compound: O=C(Nc1ccc2[nH]nc(-c3ccncc3)c2c1)[C@@H]1CCN(CC(=O)N2CCN(c3ccc(-c4ncccn4)cc3)CC2)C1; details: max 5 µM
How it was run: as §1

[34] = compound: O=C(c1cc(Cc2n[nH]c(=O)c3ccccc23)ccc1F)N1CCN(C(=O)C2CC2)CC1 [Olaparib]; details: max 10 µM
How it was run: as §1

[35] = compound: O=c1[nH]cc(F)c(=O)[nH]1 [5-Fluorouracil]; details: max 20 µM
How it was run: as §1

Cell Line	IC50, cell viability 72 h [1] [nM]	IC50, cell viability 72 h [2] [nM]	IC50, cell viability 72 h [3] [nM]	IC50, cell viability 72 h [4] [nM]	IC50, cell viability 72 h [5] [nM]	IC50, cell viability 72 h [6] [nM]	IC50, cell viability 72 h [7] [nM]	IC50, cell viability 72 h [8] [nM]	IC50, cell viability 72 h [9] [nM]	IC50, cell viability 72 h [10] [nM]	IC50, cell viability 72 h [11] [nM]	IC50, cell viability 72 h [12] [nM]	IC50, cell viability 72 h [13] [nM]	IC50, cell viability 72 h [14] [nM]	IC50, cell viability 72 h [15] [nM]	IC50, cell viability 72 h [16] [nM]	IC50, cell viability 72 h [17] [nM]	IC50, cell viability 72 h [18] [nM]	IC50, cell viability 72 h [19] [nM]	IC50, cell viability 72 h [20] [nM]	IC50, cell viability 72 h [21] [nM]	IC50, cell viability 72 h [22] [nM]	IC50, cell viability 72 h [23] [nM]	IC50, cell viability 72 h [24] [nM]	IC50, cell viability 72 h [25] [nM]	IC50, cell viability 72 h [26] [nM]	IC50, cell viability 72 h [27] [nM]	IC50, cell viability 72 h [28] [nM]	IC50, cell viability 72 h [29] [nM]	IC50, cell viability 72 h [30] [nM]	IC50, cell viability 72 h [31] [nM]	IC50, cell viability 72 h [32] [nM]	IC50, cell viability 72 h [33] [nM]	IC50, cell viability 72 h [34] [nM]	IC50, cell viability 72 h [35] [nM]
COLO-679 (Melanoma)	> 10000	> 10000	> 3000	3.7	658	> 10000	> 300	> 1000	> 2000	> 1	> 1000	46.1	> 3000	> 1000	> 10000	7180	> 10000	11.2	342	> 1000	> 10000	> 10000	> 10000	> 1000	4920	> 1000	> 10000	> 10000	242	1890	> 10000	15.2	90.6	> 10000	> 20000
Ca-Ski (Cervical Carcinoma)	> 10000	> 10000	657	> 1000	23.8	> 10000	> 300	> 1000	558	> 1	> 1000	11.7	> 3000	> 1000	8320	8850	> 10000	83.8	355	867	> 10000	> 10000	> 10000	> 1000	> 10000	> 1000	> 10000	2220	> 10000	> 10000	> 10000	222	> 5000	> 10000	> 20000
